In experiment [1] the test system is erythroid hematopoietic progenitor cells derived from human bone marrow. As to the kind of experiment: erythroid colony formation of hematopoietic progenitor cells. It is filed as cell-based. The settings on record: 336 h, human bone marrow progenitor cells. Here is the method:
(§1) Compound 1 was evaluated for its effects on proliferation of erythroid and myeloid hematopoietic progenitor cells derived from human bone marrow at […] Technologies Inc. (Vancouver, BC, Canada).
(§2) Cells were thawed rapidly at 37° C. into DNAse I and then diluted in 10 mL of Iscove's Modified Dulbecco's medium containing 2% fetal bovine serum (IMDM+2% FBS) and washed by centrifugation (1200 rpm for 10 minutes at room temperature). The supernatant was discarded and the cell pellet resuspended in a known volume of IMDM+2% FBS. A nucleated cell count (3% glacial acetic acid) and viability assessment (trypan blue exclusive test) were performed.
(§3) Compound 1 and positive control (panobinostat) were diluted in DMSO and tested at concentrations ranging from 0.002 μM to 5 μM in final media. These dilutions provided the appropriate final test concentrations required for the test and control articles ([…], and 0.002 μM).
(§4) Test and control articles were incubated with human bone marrow hematopoietic progenitor cells. After 14 days, cell colonies were assessed.
(§5) To calculate the concentration of 50% and 90% inhibition of colony growth (IC50 and IC90) for each test article, a dose response curve was generated plotting the log of the test article concentration versus the percentage of control colony growth using GraphPad Prism. […] The IC50 and IC90 values for both test and control articles were derived from an interpolation of the curve fit. In cases where the IC50/90 value reported by GraphPad Prism is a value beyond the range of concentrations that were actually tested, if this value is more than 4 times the highest concentration tested, or where GraphPad Prism cannot calculate an IC50/90 value, notations of >5 μM (for test article compound 1) are used.

Experiment [2] relates to myeloid hematopoietic progenitor cells derived from human bone marrow. The experiment is described as follows: myeloid colony formation of hematopoietic progenitor cells. It is filed as cell-based. The note with it: 336 h, human bone marrow progenitor cells. Here is the method:
as §1, §2, §3, §4, §5

SMILES strings stand for the structures. Converted amounts (≈) assume the structure as drawn. Read-outs that look alike come from different tables or passages of the source.

With `Cc1[nH]c2ccccc2c1CCNCc1ccc(/C=C/C(=O)NO)cc1` [Panobinostat, reference compound], the 50% inhibitory concentration (IC50) in experiment [1] (14 days, read-out: IC50, inhibition of erythroid colony formation) was under 10 nM; in experiment [1] (colony growth after 14 days, read-out: Erythroid IC50), 6.4 ng/mL; in experiment [2] (14 days, read-out: IC50, inhibition of myeloid colony formation), under 10 nM; in experiment [2] (colony growth after 14 days, read-out: Myeloid IC50) it was 7.4 ng/mL. Moreover, the 90% effect concentration (IC90) worked out at 7.5 ng/mL (≈ 0.0215 µM) in experiment [1] (colony growth after 14 days) and 8.1 ng/mL (≈ 0.0232 µM) in experiment [2] (colony growth after 14 days).

Source of the values: patent US20250025451A1, “TREATMENT OF CANCER WITH KDM4 INHIBITORS” (Celgene Corporation, priority 2021, published 2025).
